For 25 compounds, IC50 results are on record in US20240308992A1 (Biopolar Youtang(Guangdong) Pharmaceutical Co., Ltd., priority 2021, published 2024).

The assay has as its target T1, Drak2 (Homo sapiens, UniProt O94768).
T1 sequence (O94768 1-372): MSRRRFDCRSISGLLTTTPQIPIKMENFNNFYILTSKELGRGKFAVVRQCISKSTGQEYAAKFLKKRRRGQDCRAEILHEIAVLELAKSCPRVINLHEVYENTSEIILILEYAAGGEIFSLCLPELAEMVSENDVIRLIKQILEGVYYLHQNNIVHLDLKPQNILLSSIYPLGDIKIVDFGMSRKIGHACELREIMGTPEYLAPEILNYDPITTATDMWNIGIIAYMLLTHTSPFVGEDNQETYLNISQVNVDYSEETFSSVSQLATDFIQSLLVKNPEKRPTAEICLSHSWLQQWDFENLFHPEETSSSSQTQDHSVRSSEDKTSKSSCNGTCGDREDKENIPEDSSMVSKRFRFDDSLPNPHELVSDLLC
Nature of the assay: Drak2 activity test, ADP-Glo kinase assay (Promega). The assay is classed as biochemical. As to conditions: inhibition of Drak2 kinase activity, 2 h room temperature, activity range classes, read-out: IC50_Drak2. For orientation: ADP-Glo turns the ADP formed in a reaction into a luminescent signal.

With `COc1cc(-c2cncc(-c3cc(NC(=O)CC4CCCC4)cs3)n2)ccc1C(=O)N1CCN(C2CCN(C)CC2)CC1` [Example B52, 2-cyclopentyl-N-(5-(6-(3-methoxy-4-(4-(1-methylpiperidin-4-yl)piperazine-1-carbonyl)phenyl)pyrazin-2-yl)thiophen-3-yl)acetamide], the IC50 lay within 11 to 100 nM. As for `COc1cc(-c2cncc(-c3cc(NC(=O)CC4CCCC4)cs3)n2)ccc1C(=O)N(C)CCN(C)C` [Example B58, 4-(6-(4-(2-cyclopentylacetamido)thiophen-2-yl)pyrazin-2-yl)-N-(2-(dimethylamino)ethyl)-2-methoxy-N-methylbenzamide], the IC50 fell in the range of 11 to 100 nM. Consider `COc1cc(-c2cncc(-c3cc(NC(=O)C(C)(C)C4CCC4)cs3)n2)ccc1C(=O)N(C)C1CC2(C1)CN(C)C2` [Example 201, 4-(6-{4-[(2-cyclobutyl-2-methylpropionyl)amino]thiophen-2-yl}pyrazin-2-yl)-2-methoxy-N-methyl-N-(2-methyl-2-azaspiro [3.3]hept-6-yl) benzamide], for which the IC50 lay within 1000 to 10000 nM. Consider `COc1cc(-c2cncc(-c3cc(NC(=O)CC4CCC4)cs3)n2)ccc1OCCN1CCN(C)CC1` [Example 173, 2-cyclobutyl-N-{5-[6-(3-methoxy-4-{[2-(4-methylpiperazin-1-yl)ethyl]oxy}phenyl)pyrazin-2-yl]thiophen-3-yl}acetamide], for which the IC50 was 11 to 100 nM. Turning to `O=C(CC1CCC1)Nc1csc(-c2cncc(-c3ccnc4c3ccn4Cc3ccccc3)n2)c1` [Example 211, N-{5-[6-(1-benzylpyrrolo [2,3-b]pyridin-4-yl)pyrazin-2-yl]thiophen-3-yl}-2-cyclobutyl Acetamide], the IC50 fell in the range of 101 to 1000 nM. As for `COc1cc(-c2cncc(-c3cc(NC(=O)CC4CCC4)cs3)n2)ccc1OCCN1CCCC1=O` [Example 170, 2-Cyclobutyl-N-{5-[6-(3-methoxy-4-{[2-(2-oxotetrahydro-1H-pyrrol-1-yl)ethyl]oxy}phenyl)pyrazin-2-yl]thiophen-3-yl} acetamide], the figure is 11 to 100 nM. As for `COc1cc(-c2cncc(-c3cc(NC(=O)CC4CCC4)cs3)n2)ccc1S(=O)(=O)N1CCOCC1` [Example B105, 2-cyclobutyl-N-(5-(6-(3-methoxy-4-(morpholinosulfonyl)phenyl)pyrazin-2-yl)thiophen-3-yl)acetamide], the IC50 is 11 to 100 nM. Regarding `CCCCC(=O)Nc1csc(-c2cncc(-c3cccc(C#N)c3)n2)c1` [Example 198, N-{5-[6-(3-cyanophenyl)pyrazin-2-yl]thiophen-3-yl} pentanamide], the IC50 fell in the range of 101 to 1000 nM. Regarding `COc1cc(-c2cncc(-c3cc(NC(=O)CC4CC(C(C)=O)C4)cs3)n2)ccc1C(=O)N(C)C1CCN(C)CC1` (stereo not shown) [Example B91, 4-(6-(4-(2-(3-acetylcyclobutyl)acetamido)thiophen-2-yl)pyrazin-2-yl)-2-methoxy-N-methyl-N-(1-methylpiperidin-4-yl)benzamide], the IC50 is 101 to 1000 nM. The figure for `COc1cc(-c2cncc(-c3cc(NC(=O)CC4COC4)cs3)n2)ccc1C(=O)N(C)C1CCN(C)CC1` [Example B89, 2-methoxy-N-methyl-N-(1-methylpiperidin-4-yl)-4-(6-(4-(2-(oxetan-3-yl)acetamido)thiophen-2-yl)pyrazin-2-yl)benzamide] is 101 to 1000 nM; for `CCCCCC(=O)Nc1csc(-c2cncc(-c3ccc(OC)c(OC)c3)n2)c1` [Example A29, N-(5-(6-(3,4-dimethoxyphenyl)pyrazin-2-yl)thiophen-3-yl)hexanamide] it is 101 to 1000 nM; for `CCCCC(=O)Nc1csc(-c2cncc(-c3ccc(C(=O)N(C)C4CCN(c5cnn(C)c5)CC4)c(OC)c3)n2)c1` [Example B71, 2-methoxy-N-methyl-N-(1-(1-methyl-1H-pyrazol-4-yl)piperidin-4-yl)-4-(6-(4-pentanamidothiophen-2-yl)pyrazin-2-yl)benzamide] it is 11 to 100 nM. As to `COc1cc(-c2cncc(-c3cc(NC(=O)CC4CCC4)cs3)n2)ccc1C(=O)N1CCC(OC)CC1` [Example B49, 2-cyclobutyl-N-(5-(6-(3-methoxy-4-(4-methoxypiperidine-1-carbonyl)phenyl)pyrazin-2-yl)thiophen-3-yl)acetamide], the IC50 lay in the range of 11 to 100 nM. For `CCCCC(=O)Nc1csc(-c2cncc(-c3ccc(C(=O)O)c(OC)c3)n2)c1` [Example B2, 2-methoxy-4-(6-(4-pentanamidothiophen-2-yl)pyrazin-2-yl)benzoic acid], the IC50 was in the range of 11 to 100 nM.

For the compound `COc1cc(-c2cncc(-c3cc(NC(=O)Cc4ccco4)cs3)n2)ccc1C(=O)Nc1nnn[nH]1` [Example B13, 2-methoxy-4-(6-(4-(2-(furan-2-yl)acetamido)thiophen-2-yl)pyrazin-2-yl)-N-(1H-tetrazol-5-yl)benzamide], the IC50 lay within 101 to 1000 nM. The figure for `CCCCC(=O)Nc1csc(-c2cncc(-c3ccc(OC)c(C#N)c3)n2)c1` [Example A21, N-(5-(6-(3-cyano-4-methoxyphenyl)pyrazin-2-yl)thiophen-3-yl)pentanamide] is 101 to 1000 nM; for `CCCCCCCCC(=O)Nc1csc(-c2cncc(-c3ccc(C(=O)Nc4nnn[nH]4)c(OC)c3)n2)c1` [Example B19, 2-methoxy-4-(6-(4-nonanamidothiophen-2-yl)pyrazin-2-yl)-N-(1H-tetrazol-5-yl)benzamide] it is over 10000 nM; for `COc1cc(-c2cncc(-c3cc(NC(=O)CC4CC4)cs3)n2)ccc1C(=O)N1CCC(OC)CC1` [Example B48, 2-cyclopropyl-N-(5-(6-(3-methoxy-4-(4-methoxypiperidine-1-carbonyl)phenyl)pyrazin-2-yl)thiophen-3-yl)acetamide] it is 11 to 100 nM. The figure for `CCCCC(=O)Nc1csc(-c2cncc(-c3ccc(C4(O)COC4)c(OC)c3)n2)c1` [Example A35, N-(5-(6-(4-(3-hydroxyoxetan-3-yl)-3-methoxyphenyl)pyrazin-2-yl)thiophen-3-yl)pentanamide] is 11 to 100 nM; for `COc1cc(-c2cncc(-c3cc(OCC[C@H](C)CN)cs3)n2)ccc1C(=O)N(C)C1CCN(C)CC1` [Example G1, (S)-4-(6-(4-(4-amino-3-methylbutoxy)thiophen-2-yl)pyrazin-2-yl)-2-methoxy-N-methyl-N-(1-methylpiperidin-4-yl) benzamide] it is 101 to 1000 nM; for `CCCCC(=O)Nc1csc(-c2cncc(-c3ccc(O)c(F)c3)n2)c1` [Example A34, N-(5-(6-(3-fluoro-4-hydroxyphenyl)pyrazin-2-yl)thiophen-3-yl)pentanamide] it is 11 to 100 nM. As for `COc1cc(-c2cncc(-c3cc(NC(=O)CC4CCCC4)cs3)n2)ccc1C(=O)N(C)C1CCN(C)CC1` [Example B61, 4-(6-(4-(2-cyclopentylacetamido)thiophen-2-yl)pyrazin-2-yl)-2-methoxy-N-methyl-N-(1-methylpiperidin-4-yl)benzamide], the figure is 11 to 100 nM; as for `COc1ccc(-c2cncc(-c3cc(NC(=O)C(C)C)cs3)n2)cc1OC` [Example A4, N-(5-(6-(3,4-dimethoxyphenyl)pyrazin-2-yl)thiophen-3-yl)isobutyramide], 101 to 1000 nM; as for `CCCCC(=O)Nc1csc(-c2cncc(-c3cccs3)n2)c1` [Example 219, N-{5-[6-(thiophen-2-yl)pyrazin-2-yl]thiophen-3-yl}pentanamide], 11 to 100 nM. Regarding `O=C(CC1CCC1)Nc1csc(-c2cncc(-c3ccc4cn[nH]c4c3)n2)c1` [Example A52, N-(5-(6-(1H-indazol-6-yl)pyrazin-2-yl)thiophen-3-yl)-2-cyclobutylacetamide], the IC50 was in the range of 11 to 100 nM.
